The test has as its target T1, Fatty-acid amide hydrolase 1 (Rattus norvegicus, UniProt P97612).
T1 sequence (P97612 whole entry): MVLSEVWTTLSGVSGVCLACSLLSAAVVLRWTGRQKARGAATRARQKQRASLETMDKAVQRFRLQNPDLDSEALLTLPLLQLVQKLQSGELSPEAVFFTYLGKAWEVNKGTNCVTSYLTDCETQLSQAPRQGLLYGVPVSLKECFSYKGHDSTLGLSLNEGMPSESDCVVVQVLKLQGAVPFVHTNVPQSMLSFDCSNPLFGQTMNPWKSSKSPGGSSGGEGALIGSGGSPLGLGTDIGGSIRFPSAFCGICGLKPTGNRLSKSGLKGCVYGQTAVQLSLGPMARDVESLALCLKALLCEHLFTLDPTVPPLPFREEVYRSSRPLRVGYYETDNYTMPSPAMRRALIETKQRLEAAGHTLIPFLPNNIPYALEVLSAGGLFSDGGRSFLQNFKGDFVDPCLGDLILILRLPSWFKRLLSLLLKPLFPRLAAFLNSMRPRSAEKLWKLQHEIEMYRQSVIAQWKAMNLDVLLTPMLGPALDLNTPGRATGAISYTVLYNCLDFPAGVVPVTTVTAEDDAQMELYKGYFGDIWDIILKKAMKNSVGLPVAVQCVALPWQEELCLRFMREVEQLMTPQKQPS
Nature of the test: Inhibition of rat recombinant FAAH expressed in Escherichia coli.

One may read the Ki as a dissociation constant, usually derived from enzyme kinetics or from competition with a known ligand. Consider `O=C(CCC(O)CCCc1ccccc1)c1ncc(-c2ccccn2)o1` (stereo unspecified), for which the Ki amounted to 500 nM.

For the compound `COC(=O)CCC(=O)c1ncc(-c2ccccn2)o1`, the inhibition constant (Ki) is more than 100000 nM.

With `O=C(CCCCC#Cc1cccnc1)c1ncc(-c2ccccn2)o1`, the Ki amounted to 300 nM.

`O=C(CCC(=O)c1ncc(-c2ccccn2)o1)NCCc1ccccc1`: the inhibitory constant (Ki) is more than 100000 nM.

For `O=C(CCCCC#Cc1ccccn1)c1ncc(-c2ccccn2)o1`, the Ki turned out to be 280 nM.

Turning to `CC(C)(C)OC(=O)Nc1cccc(C#CCCCCC(=O)c2ncc(-c3ccccn3)o2)c1`, the Ki came out at 12 nM.

Regarding `O=C(CCCCC#Cc1ccncc1)c1ncc(-c2ccccn2)o1`, the Ki came to 150 nM.

For the compound `O=C(CCl)c1ncc(-c2ccccn2)o1`, the Ki was found to be 800 nM.

With `COC(=O)CCCCC(=O)c1ncc(-c2ccccn2)o1`, the Ki stood at 1800 nM.

In the case of `O=C(CCCCS(=O)(=O)Cc1ccccc1)c1ncc(-c2ccccn2)o1`, the Ki is more than 10000 nM.

For the compound `O=C(CCCCC#Cc1ccccc1Cl)c1ncc(-c2ccccn2)o1`, the Ki is 13 nM.

Regarding `CC(C)(C)OC(=O)Nc1ccc(CCCCCCC(=O)c2ncc(-c3ccccn3)o2)cc1`, the Ki is 5.6 nM.

In the case of `CN(CCCCC(=O)c1ncc(-c2ccccn2)o1)Cc1ccccc1`, the Ki turned out to be 200 nM.

On to `O=C(CCCCC(O)Cc1ccccc1)c1ncc(-c2ccccn2)o1` (stereo unspecified), for which the Ki was 200 nM.

On to `O=C(CCCCCOc1ccccc1)c1ncc(-c2ccccn2)o1`, for which the Ki was 14 nM.

For `O=C(CCCCC#Cc1cccc(F)c1)c1ncc(-c2ccccn2)o1`, the Ki worked out at 3.2 nM.

Regarding `O=C(CCCCC#Cc1ccccc1)c1ncc(-c2ccccn2)o1`, the inhibition constant Ki was 25 nM.

As for `CN(CCCCc1ccccc1)CC(O)c1ncc(-c2ccccn2)o1` (stereo unspecified), the Ki is more than 100000 nM.

On to `O=C(CCCCC#Cc1cccc([N+](=O)[O-])c1)c1ncc(-c2ccccn2)o1`, for which the Ki turned out to be 4.8 nM.

For `O=C(CC(O)CCCCc1ccccc1)c1ncc(-c2ccccn2)o1` (stereo unspecified), the Ki stood at 35 nM.

Turning to `O=C(CS(=O)(=O)CCCCc1ccccc1)c1ncc(-c2ccccn2)o1`, the Ki came to 20000 nM.

Take `COC(=O)c1ccc(C#CCCCCC(=O)c2ncc(-c3ccccn3)o2)cc1`: the Ki came out at 25 nM.

`O=C(CCCCC#Cc1ccc(F)cc1)c1ncc(-c2ccccn2)o1`: the Ki is 36 nM.

With `O=C(CCCCC#Cc1ccc(C(F)(F)F)cc1)c1ncc(-c2ccccn2)o1`, the Ki came to 75 nM.

With `O=C(CCCCc1ccccc1)CC(=O)c1ncc(-c2ccccn2)o1`, the Ki was more than 2000 nM.

`O=C(CCCCC[S+]([O-])c1ccccc1)c1ncc(-c2ccccn2)o1` (stereo unspecified): the Ki is 1000 nM.

As to `O=C(CCOCCCc1ccccc1)c1ncc(-c2ccccn2)o1`, the Ki was determined as 90 nM.

On to `O=C(CCCCC#Cc1cccc(C(F)(F)F)c1)c1ncc(-c2ccccn2)o1`, for which the Ki amounted to 10 nM.

Regarding `CC(C)(C)OC(=O)Nc1cccc(CCCCCCC(=O)c2ncc(-c3ccccn3)o2)c1`, the Ki came to 2.4 nM.

For `O=C(O)c1ccc(CCCCCCC(=O)c2ncc(-c3ccccn3)o2)cc1`, the Ki is more than 600 nM.

On to `O=C(CCCC[S+]([O-])Cc1ccccc1)c1ncc(-c2ccccn2)o1` (stereo unspecified), for which the Ki was 2500 nM.

Turning to `O=C(c1ncc(-c2ccccn2)o1)C1CC1`, the Ki was more than 50000 nM.

Consider `O=C(CCCCC#Cc1cccc(Cl)c1Cl)c1ncc(-c2ccccn2)o1`, for which the Ki came out at 5 nM.

Regarding `O=C(O)c1cccc(CCCCCCC(=O)c2ncc(-c3ccccn3)o2)c1`, the Ki was more than 600 nM.

`O=C(CCCC(=O)c1ncc(-c2ccccn2)o1)NCc1ccccc1`: the Ki stood at 20000 nM.

On to `O=C(CCCCSCc1ccccc1)c1ncc(-c2ccccn2)o1`, for which the Ki is 25 nM.

For the compound `Nc1cccc(CCCCCCC(=O)c2ncc(-c3ccccn3)o2)c1`, the Ki turned out to be 30 nM.

In the case of `O=C(CCCCCS(=O)(=O)c1ccccc1)c1ncc(-c2ccccn2)o1`, the Ki turned out to be 6000 nM.

For the compound `O=C(CCCC(O)CCc1ccccc1)c1ncc(-c2ccccn2)o1` (stereo unspecified), the Ki amounted to 1500 nM.

As to `O=C(C[S+]([O-])CCCCc1ccccc1)c1ncc(-c2ccccn2)o1` (stereo unspecified), the Ki came to 1000 nM.

With `O=C(CCCCCC(O)c1ccccc1)c1ncc(-c2ccccn2)o1` (stereo unspecified), the Ki came to 35 nM.

These data come from ChEMBL document CHEMBL1145407, “Structure-activity relationships of alpha-ketooxazole inhibitors of fatty acid amide hydrolase” (J Med Chem, 2007).
